Results on 15 molecules are retold here after BindingDB's records for doi:10.1021/jm100978n (Pfizer, 2011).

A short description of the assay: Antagonist activity at CCR5 receptor expressed in HeLa-P4 cells co-expressing CD4 assessed as inhibition of infusion to HIV gp120 expressed in CHO-tat10 cells after 20 hrs by cell-cell fusion assay.
In the case of `Cc1nc(C(C)C)n([C@H]2C[C@H]3CC[C@@H](C2)N3CC[C@H](NC(=O)C2CCC(F)(F)CC2)c2ccccc2)n1` [endo-4,4-difluoro-N-((S)-3-(3-(5-isopropyl-3-methyl-1H-1,2,4-triazol-1-yl)-8-azabicyclo[3.2.1]octan-8-yl)-1-phenylpropyl)cyclohexanecarboxamide], the IC50 turned out to be 1.4 nM.
For the molecule `CC(=O)N[C@@H](CCN1[C@@H]2CC[C@H]1C[C@@H](n1c(C)nc3c1CN(C)CC3)C2)c1ccccc1` [endo-N-((S)-3-(3-(2,5-dimethyl-4,5,6,7-tetrahydro-3H-imidazo[4,5-c]pyridin-3-yl)-8-azabicyclo[3.2.1]octan-8-yl)-1-phenylpropyl)acetamide], the IC50 is 5 nM.
As to `CC(=O)N[C@@H](CCN1[C@@H]2CC[C@H]1C[C@@H](n1c(C)nc3ccccc31)C2)c1ccccc1` [endo-N-((S)-3-(3-(2-methyl-1H-benzo[d]imidazol-1-yl)-8-azabicyclo[3.2.1]octan-8-yl)-1-phenylpropyl)acetamide], the IC50 worked out at 0.5 nM.
The same measure for `CC(=O)N[C@@H](CCN1[C@@H]2CC[C@H]1C[C@@H](n1c(C)nc3c1CNCC3)C2)c1ccccc1` [endo-N-((S)-3-(3-(2-methyl-4,5,6,7-tetrahydro-3H-imidazo[4,5-c]pyridin-3-yl)-8-azabicyclo[3.2.1]octan-8-yl)-1-phenylpropyl)acetamide]: 9 nM.
Turning to `CC(=O)N[C@@H](CCN1[C@@H]2CC[C@H]1C[C@@H](n1c(C)nc3c1CN(S(C)(=O)=O)CC3)C2)c1ccccc1` [endo-N-((S)-3-(3-(2-methyl-5-(methylsulfonyl)-4,5,6,7-tetrahydro-3H-imidazo[4,5-c]pyridin-3-yl)-8-azabicyclo[3.2.1]octan-8-yl)-1-phenylpropyl)acetamide], the IC50 stood at 2 nM.
With `CCC(=O)N1CCc2nc(C)n([C@H]3C[C@H]4CC[C@@H](C3)N4CC[C@H](NC(C)=O)c3ccccc3)c2C1` [endo-N-((S)-3-(3-(2-methyl-5-propionyl-4,5,6,7-tetrahydro-3H-imidazo[4,5-c]pyridin-3-yl)-8-azabicyclo[3.2.1]octan-8-yl)-1-phenylpropyl)acetamide], the half-maximal inhibitory concentration (IC50) came to 0.4 nM.
Then `CC(=O)N[C@@H](CCN1[C@@H]2CC[C@H]1C[C@@H](n1c(C)nc3c1CN(C(C)=O)CC3)C2)c1ccccc1` [endo-N-((S)-3-(3-(5-acetyl-2-methyl-4,5,6,7-tetrahydro-3H-imidazo[4,5-c]pyridin-3-yl)-8-azabicyclo[3.2.1]octan-8-yl)-1-phenylpropyl)acetamide], with 0.4 nM; and `CC(=O)N[C@@H](CCN1[C@@H]2CC[C@H]1C[C@@H](n1c(C)nc3c1CN(Cc1ccccc1)CC3)C2)c1ccccc1` [endo-N-((S)-3-(3-(5-benzyl-2-methyl-4,5,6,7-tetrahydro-3H-imidazo[4,5-c]pyridin-3-yl)-8-azabicyclo[3.2.1]octan-8-yl)-1-phenylpropyl)acetamide], with 29 nM; and `CC(=O)N[C@@H](CCN1[C@@H]2CC[C@H]1C[C@@H](n1c(C)nc3c1CN(C(=O)C(C)C)CC3)C2)c1ccccc1` [endo-N-((S)-3-(3-(5-isobutyryl-2-methyl-4,5,6,7-tetrahydro-3H-imidazo[4,5-c]pyridin-3-yl)-8-azabicyclo[3.2.1]octan-8-yl)-1-phenylpropyl)acetamide], with 0.4 nM.
Regarding `CC(=O)N[C@@H](CCN1[C@@H]2CC[C@H]1C[C@@H](n1c(C)nc3c1CN(C(C)C)CC3)C2)c1ccccc1` [endo-N-((S)-3-(3-(5-isopropyl-2-methyl-4,5,6,7-tetrahydro-3H-imidazo[4,5-c]pyridin-3-yl)-8-azabicyclo[3.2.1]octan-8-yl)-1-phenylpropyl)acetamide], the IC50 was 3 nM.
`COC(=O)N[C@@H](CCN1[C@@H]2CC[C@H]1C[C@@H](n1c(C)nc3c1CN(C(=O)OC)CC3)C2)c1cccc(F)c1` [endo-methyl 3-(8-((S)-3-(3-fluorophenyl)-3-(methoxycarbonylamino)propyl)-8-azabicyclo[3.2.1]octan-3-yl)-2-methyl-6,7-dihydro-3H-imidazo[4,5-c]pyridine-5(4H)-carboxylate]: the IC50 came out at 0.2 nM.
With `COC(=O)N1CCc2nc(C)n([C@H]3C[C@H]4CC[C@@H](C3)N4CC[C@H](NC(C)=O)c3cccc(F)c3)c2C1` [endo-methyl 3-(8-((S)-3-acetamido-3-(3-fluorophenyl)propyl)-8-azabicyclo[3.2.1]octan-3-yl)-2-methyl-6,7-dihydro-3H-imidazo[4,5-c]pyridine-5(4H)-carboxylate], the IC50 was determined as 0.1 nM.
Consider `COC(=O)N1CCc2nc(C)n([C@H]3C[C@H]4CC[C@@H](C3)N4CC[C@H](NC(C)=O)c3ccccc3)c2C1` [endo-methyl 3-(8-((S)-3-acetamido-3-phenylpropyl)-8-azabicyclo[3.2.1]octan-3-yl)-2-methyl-6,7-dihydro-3H-imidazo[4,5-c]pyridine-5(4H)-carboxylate], for which the IC50 amounted to 0.3 nM.
With `COC(=O)N[C@@H](CCN1[C@@H]2CC[C@H]1C[C@@H](n1c(C)nc3c1CN(C(C)=O)CC3)C2)c1cccc(F)c1` [endo-methyl(S)-3-(3-(5-acetyl-2-methyl-4,5,6,7-tetrahydro-3H-imidazo[4,5-c]pyridin-3-yl)-8-azabicyclo[3.2.1]octan-8-yl)-1-(3-fluorophenyl)propylcarbamate], the IC50 was 0.2 nM.
Then `COC(=O)N[C@@H](CCN1[C@@H]2CC[C@H]1C[C@@H](n1c(C)nc3c1CN(C(C)=O)CC3)C2)c1ccccc1` [endo-methyl(S)-3-(3-(5-acetyl-2-methyl-4,5,6,7-tetrahydro-3H-imidazo[4,5-c]pyridin-3-yl)-8-azabicyclo[3.2.1]octan-8-yl)-1-phenylpropylcarbamate], with 0.6 nM.
